ChEMBL document CHEMBL1201862, “PubChem BioAssay data set” (2004)
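Where inhibition never reached the appropriate level, the endpoint shown equals the highest concentration tested. Otherwise, values were interpolated linearly from a five-concentration, 48-hour dose response in 96-well plates. Abbreviation: GI50, concentration required for 50% inhibition of growth.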 Activity calls are given as the source filed them. Rule as the data show it: active = GI50 up to about 1.1 µM and inactive = higher.

Tests used:
Experiment in all cases: growth of human tumour cells (NCI), 48 h
CCRF-CEM = system: CCRF-CEM
EKVX = system: EKVX
OVCAR-5 = system: OVCAR-5
OVCAR-3 = system: OVCAR-3
NCI-H460 = system: NCI-H460
HT-29 = system: HT-29
IGROV-1 = system: IGROV-1
SF-268 = system: SF-268
OVCAR-4 = system: OVCAR-4
SF-539 = system: SF-539
HCT-15 = system: HCT-15
RXF 393 = system: RXF 393
SN12C = system: SN12C
TK-10 = system: TK-10
HOP-62 = system: HOP-62
HOP-92 = system: HOP-92

| SMILES | GI50 (CCRF-CEM) | GI50 (EKVX) | GI50 (OVCAR-5) | GI50 (OVCAR-3) | GI50 (NCI-H460) | GI50 (HT-29) | GI50 (IGROV-1) | GI50 (SF-268) | GI50 (OVCAR-4) | GI50 (SF-539) | GI50 (HCT-15) | GI50 (RXF 393) | GI50 (SN12C) | GI50 (TK-10) | GI50 (HOP-62) | GI50 (HOP-92) |
| --- | --- | --- | --- | --- | --- | --- | --- | --- | --- | --- | --- | --- | --- | --- | --- | --- |
| Cc1cc2c(=O)cc(-c3ccc(F)cc3)oc2c(C(=O)O)c1C | > 100 µM (inactive) | > 100 µM (inactive) | > 100 µM (inactive) | > 100 µM (inactive) | > 100 µM (inactive) | > 100 µM (inactive) | > 100 µM (inactive) | > 100 µM (inactive) | > 100 µM (inactive) | > 100 µM (inactive) | > 100 µM | > 100 µM (inactive) | > 100 µM (inactive) | > 100 µM (inactive) | – | – |
| CCOC(=O)C1S/C(=N\c2ccc(Cl)c(Cl)c2)N=C1C (stereo not given) | 13.2 µM (inactive) | > 100 µM (inactive) | 44.1 µM (inactive) | 17.9 µM (inactive) | 49.8 µM (inactive) | 19.7 µM (inactive) | 48.8 µM (inactive) | 54.6 µM (inactive) | 20.3 µM (inactive) | 34 µM (inactive) | 20.8 µM | 13 µM (inactive) | 19.6 µM (inactive) | 76.7 µM (inactive) | 56.9 µM (inactive) | – |
| N#Cc1cn(-c2c3ccccc3nc3ccccc23)c(=O)[nH]c1=O | 7.29 µM (inactive) | 18.2 µM (inactive) | 13.8 µM (inactive) | 8.02 µM (inactive) | 3.55 µM (inactive) | 4.27 µM (inactive) | 23.3 µM (inactive) | 4.74 µM (inactive) | 5.14 µM (inactive) | 2.51 µM (inactive) | 5.96 µM | – | – | 21.5 µM (inactive) | – | 7.73 µM (inactive) |
| COC(OC)c1cccc2c1C1(O)CCC3(CC21)OCCCCO3 (stereo not given) | > 100 µM (inactive) | – | > 100 µM (inactive) | > 100 µM (inactive) | > 100 µM (inactive) | > 100 µM (inactive) | > 100 µM (inactive) | > 100 µM (inactive) | > 100 µM (inactive) | > 100 µM (inactive) | > 100 µM | > 100 µM (inactive) | > 100 µM (inactive) | > 100 µM (inactive) | > 100 µM (inactive) | – |
| O=C(c1ccccc1)N1CCc2c([nH]c3ccccc23)C1 | 44.6 µM (inactive) | 44.6 µM (inactive) | > 100 µM (inactive) | 38 µM (inactive) | 41.7 µM (inactive) | 72.4 µM (inactive) | 52.2 µM (inactive) | – | 53 µM (inactive) | 76.9 µM (inactive) | 49.1 µM | – | 34 µM (inactive) | 44.3 µM (inactive) | 91.2 µM (inactive) | 48.6 µM (inactive) |
| Cc1ccc(S(=O)(=O)c2c3nc4ccccc4nc3n3c2[nH]c2ccccc23)cc1 | > 100 µM (inactive) | > 100 µM (inactive) | > 100 µM (inactive) | > 100 µM (inactive) | > 100 µM (inactive) | – | 8.13 µM (inactive) | > 100 µM (inactive) | > 100 µM (inactive) | > 100 µM (inactive) | > 100 µM | – | > 100 µM (inactive) | > 100 µM (inactive) | > 100 µM (inactive) | > 100 µM (inactive) |
| CNS(=O)(=O)NN(C)S(=O)(=O)c1ccc(OC)cc1 | > 100 µM (inactive) | > 100 µM (inactive) | – | – | – | > 100 µM (inactive) | > 100 µM (inactive) | > 100 µM (inactive) | > 100 µM (inactive) | > 100 µM (inactive) | > 100 µM | 31 µM (inactive) | > 100 µM (inactive) | > 100 µM (inactive) | > 100 µM (inactive) | – |
| Cn1cnc([N+](=O)[O-])c1SC1=NCCS1 | 28.2 µM (inactive) | > 100 µM (inactive) | > 100 µM (inactive) | > 100 µM (inactive) | > 100 µM (inactive) | > 100 µM (inactive) | > 100 µM (inactive) | > 100 µM (inactive) | 89.9 µM (inactive) | > 100 µM (inactive) | – | – | > 100 µM (inactive) | > 100 µM (inactive) | > 100 µM (inactive) | 37.4 µM (inactive) |
